The IC50 is the point on the concentration scale where inhibition reaches its midpoint.

In US20240116985A1, “STAPLED PEPTIDES AND METHODS THEREOF” (priority 2020, published 2024) one finds IC50 data, which are given here for 13 compounds.

The target in test [1] is T1, full-length beta-Catenin (Uniprot ID P35222) (Homo sapiens, UniProt P35222).
T1 construct: 10 nM full-length beta-Catenin (Uniprot ID P35222)
T1 sequence (P35222 1-781): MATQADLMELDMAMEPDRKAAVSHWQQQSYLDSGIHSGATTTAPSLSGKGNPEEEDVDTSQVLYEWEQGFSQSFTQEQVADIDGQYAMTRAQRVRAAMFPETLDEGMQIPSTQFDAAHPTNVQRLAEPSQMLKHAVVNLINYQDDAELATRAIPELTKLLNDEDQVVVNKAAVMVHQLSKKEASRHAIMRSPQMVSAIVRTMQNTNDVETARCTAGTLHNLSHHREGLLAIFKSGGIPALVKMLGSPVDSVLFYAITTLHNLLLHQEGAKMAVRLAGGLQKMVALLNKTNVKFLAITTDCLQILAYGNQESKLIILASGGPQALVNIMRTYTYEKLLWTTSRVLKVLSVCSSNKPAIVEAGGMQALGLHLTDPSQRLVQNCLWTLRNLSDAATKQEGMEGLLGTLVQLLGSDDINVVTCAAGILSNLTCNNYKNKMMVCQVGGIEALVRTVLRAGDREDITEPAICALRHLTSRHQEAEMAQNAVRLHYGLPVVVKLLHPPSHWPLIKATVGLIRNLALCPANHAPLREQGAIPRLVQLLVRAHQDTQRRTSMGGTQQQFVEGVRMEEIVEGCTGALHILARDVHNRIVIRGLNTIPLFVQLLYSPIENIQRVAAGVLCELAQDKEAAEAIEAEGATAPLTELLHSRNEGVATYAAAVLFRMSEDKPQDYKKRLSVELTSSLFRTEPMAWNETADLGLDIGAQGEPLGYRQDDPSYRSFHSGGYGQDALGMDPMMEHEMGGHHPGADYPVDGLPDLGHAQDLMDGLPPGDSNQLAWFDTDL
The test can be described thus: Fluorescence polarization IC50 (beta-catenin / 5FAM-TCF4 10-53 competition). In kind it is binding. Conditions: fluorescence polarization; read-out: beta-Catenin FP IC50. On the technique in general: In fluorescence polarisation assays a small probe gives low polarisation when free and higher when bound to something large.

Test [2] addresses T2, beta-catenin/TCF4 engagement (Homo sapiens, UniProt P35222).
T2 construct: expressed in transfected cells; host or cells: HEK293
T2 sequence (P35222 1-781): T1 sequence (P35222 1-781)
The test can be described thus: Nano-BRET target engagement assay (B-cat-Halo & TCF4-Luc in HEK293 cells). In kind it is cell-based. The following applies: read-out: NanoBRET Abs IC50.

Consider `CC(=O)N1CCC[C@]12CC=CCCCC1(CCCC=CCCCOC(=O)N3CC[C@@](C(=O)N[C@@H](Cc4ccccc4Cl)C(=O)N[C@@H](Cc4csc5ccccc45)C(=O)N[C@@H](CC(N)=O)C(N)=O)(C3)NC(=O)[C@H](C)NC(=O)[C@H](Cc3ccccc3)NC(=O)[C@H](C)NC(=O)[C@H](C)NC(=O)[C@H](Cc3cccc(C(=O)O)c3)NC(=O)[C@H](CC(=O)O)NC1=O)NC(=O)[C@H](CC(C)(C)C)NC(=O)[C@H](CC(=O)O)NC2=O` (stereo partly drawn) [I-2035, Ac-PL3-Asp-Npg-B5-Asp-3COOHF-Ala-Ala-Phe-Ala-PyrS2-2C1F-BztA-Asn-NH2], for which the results for the IC50 in test [1] and in test [2] were 0.016 µM and 14.5 µM, respectively.

For `CC(=O)N1CCC[C@]12CC=CCCCC1(CCCC=CCCCOC(=O)N3CC[C@@](C(=O)N[C@@H](Cc4ccccc4Cl)C(=O)N[C@@H](Cc4csc5ccccc45)C(=O)N[C@@H](CC(N)=O)C(N)=O)(C3)NC(=O)[C@H](C)NC(=O)[C@H](Cc3ccccc3)NC(=O)[C@H](C)NC(=O)[C@H](C)NC(=O)[C@H](Cc3cccc(C(=O)O)c3)NC(=O)[C@H](CC(=O)O)NC1=O)NC(=O)[C@H](CC(C)(C)C)NC(=O)[C@H](CC(=O)O)NC2=O` (stereo partly drawn) [I-2036, Ac-PL3-Asp-Npg-B5-Asp-3COOHF-Ala-Ala-Phe-Ala-PyrS2-2C1F-BztA-Asn-NH2], the IC50 in test [1] amounted to 0.019 µM; in test [2] it was 12.9 µM.

Take `CC(=O)N1CCC[C@]12CC=CCCCC1(CCCC=CCCCOC(=O)N3CC[C@@](C(=O)N[C@@H](Cc4ccccc4Cl)C(=O)N[C@@H](Cc4csc5ccccc45)C(=O)N[C@@H](CC(N)=O)C(N)=O)(C3)NC(=O)[C@H](Cc3ccccc3)NC(=O)[C@H](Cc3ccccc3)NC(=O)[C@H](C)NC(=O)[C@H](C)NC(=O)[C@H](Cc3cccc(C(=O)O)c3)NC(=O)[C@H](CC(=O)O)NC1=O)NC(=O)[C@H](CC(C)(C)C)NC(=O)[C@H](CC(=O)O)NC2=O` (stereo partly drawn) [I-2037, Ac-PL3-Asp-Npg-B5-Asp-3COOHF-Ala-Ala-Phe-Phe-PyrS2-2C1F-BztA-Asn-NH2]: the IC50 came to 0.017 µM in test [1] and 5 µM in test [2].

Take `CC(=O)N1CCC[C@]12CC=CCCCC1(CCCC=CCCCOC(=O)N3CC[C@@](C(=O)N[C@@H](Cc4ccccc4Cl)C(=O)N[C@@H](Cc4csc5ccccc45)C(=O)N[C@@H](CC(N)=O)C(N)=O)(C3)NC(=O)[C@H](CO)NC(=O)[C@H](Cc3ccccc3)NC(=O)[C@H](C)NC(=O)[C@H](C)NC(=O)[C@H](Cc3cccc(C(=O)O)c3)NC(=O)[C@H](CC(=O)O)NC1=O)NC(=O)[C@H](CC(C)(C)C)NC(=O)[C@H](CC(=O)O)NC2=O` (stereo partly drawn) [I-2038, Ac-PL3-Asp-Npg-B5-Asp-3COOHF-Ala-Ala-Phe-Ser-PyrS2-2C1F-BztA-Asn-NH2]: the IC50 amounted to 0.011 µM in test [1] and 11.8 µM in test [2].

Turning to `CC(=O)N1CCC[C@]12CC=CCCCC1(CCCC=CCCCOC(=O)N3CC[C@@](C(=O)N[C@@H](Cc4ccccc4Cl)C(=O)N[C@@H](Cc4csc5ccccc45)C(=O)N[C@@H](CC(N)=O)C(N)=O)(C3)NC(=O)[C@H](CO)NC(=O)[C@H](Cc3ccccc3)NC(=O)[C@H](C)NC(=O)[C@H](C)NC(=O)[C@H](Cc3cccc(C(=O)O)c3)NC(=O)[C@H](CC(=O)O)NC1=O)NC(=O)[C@H](CC(C)(C)C)NC(=O)[C@H](CC(=O)O)NC2=O` (stereo partly drawn) [I-2039, Ac-PL3-Asp-Npg-B5-Asp-3COOHF-Ala-Ala-Phe-Ser-PyrS2-2C1F-BztA-Asn-NH2], the IC50 amounted to 0.009 µM in test [1] and 10.5 µM in test [2].

On to `CC(=O)N1CCC[C@]12CC=CCCCC1(CCCC=CCCCOC(=O)N3CC[C@@](C(=O)N[C@@H](Cc4ccsc4)C(=O)N[C@@H](Cc4csc5ccccc45)C(=O)N[C@@H](CC(N)=O)C(N)=O)(C3)NC(=O)[C@H](C)NC(=O)[C@H](Cc3ccccc3)NC(=O)[C@H](C)NC(=O)[C@H](C)NC(=O)[C@H](Cc3cccc(C(=O)O)c3)NC(=O)[C@H](CC(=O)O)NC1=O)NC(=O)[C@H](CC(C)(C)C)NC(=O)[C@H](CC(=O)O)NC2=O` (stereo partly drawn) [I-2042, Ac-PL3-Asp-Npg-B5-Asp-3COOHF-Ala-Ala-Phe-Ala-PyrS2-3Thi-BztA-Asn-NH2], for which the values for the IC50 in test [1] and in test [2] were 0.009 µM and 10 µM, respectively.

In the case of `CC(=O)N1CCC[C@]12CC=CCCCC1(CCCC=CCCCOC(=O)N3CC[C@@](C(=O)N[C@@H](Cc4ccsc4)C(=O)N[C@@H](Cc4csc5ccccc45)C(=O)N[C@@H](CC(N)=O)C(N)=O)(C3)NC(=O)[C@H](CO)NC(=O)[C@H](Cc3ccccc3)NC(=O)[C@H](C)NC(=O)[C@H](C)NC(=O)[C@H](Cc3cccc(C(=O)O)c3)NC(=O)[C@H](CC(=O)O)NC1=O)NC(=O)[C@H](CC(C)(C)C)NC(=O)[C@H](CC(=O)O)NC2=O` (stereo partly drawn) [I-2045, Ac-PL3-Asp-Npg-B5-Asp-3COOHF-Ala-Ala-Phe-Ser-PyrS2-3Thi-BztA-Asn-NH2], the IC50 in test [1] was determined as 0.005 µM; in test [2], 13.5 µM.

As to `CC(=O)N1CCC[C@]12CC=CCCCC1(CCCC=CCCCOC(=O)N3CC[C@@](C(=O)N[C@@H](Cc4ccsc4)C(=O)N[C@@H](Cc4csc5ccccc45)C(=O)N[C@@H](CC(N)=O)C(=O)N[C@@H](C)C(=O)N[C@@H](C)C(=O)N[C@@H](C)C(N)=O)(C3)NC(=O)[C@H](CC(C)C)NC(=O)[C@H](Cc3ccccc3)NC(=O)[C@H](C)NC(=O)[C@H](C)NC(=O)[C@H](Cc3cccc(C(=O)O)c3)NC(=O)[C@H](CC(=O)O)NC1=O)NC(=O)[C@H](CC(C)(C)C)NC(=O)[C@H](CC(=O)O)NC2=O` (stereo partly drawn) [I-2046, Ac-PL3-Asp-Npg-B5-Asp-3COOHF-Ala-Ala-Phe-Leu-PyrS2-3Thi-BztA-Asn-Ala-Ala-Ala-NH2], the values for the IC50 in test [1] and in test [2] were 0.012 µM and 2.9 µM, respectively.

As to `CC(=O)N1CCC[C@]12CC=CCCCC1(CCCC=CCCCOC(=O)N3CC[C@@](C(=O)N[C@@H](Cc4ccsc4)C(=O)N[C@@H](Cc4csc5ccccc45)C(=O)N[C@@H](C)C(N)=O)(C3)NC(=O)[C@H](CC(C)C)NC(=O)[C@H](Cc3ccccc3)NC(=O)[C@H](C)NC(=O)[C@H](CC(N)=O)NC(=O)[C@H](Cc3cccc(C(=O)O)c3)NC(=O)[C@H](CC(=O)O)NC1=O)NC(=O)[C@H](CC(C)(C)C)NC(=O)[C@H](CC(=O)O)NC2=O` (stereo partly drawn) [I-2049, Ac-PL3-Asp-Npg-B5-Asp-3COOHF-Asn-Ala-Phe-Leu-PyrS2-3Thi-BztA-Ala-NH2], the values for the IC50 in test [1] and in test [2] were 0.005 µM and 4.5 µM, respectively.

Take `CC(=O)N1CCC[C@]12CC=CCCCC1(CCCC=CCCCOC(=O)N3CC[C@@](C(=O)N[C@@H](Cc4ccsc4)C(=O)N[C@@H](Cc4csc5ccccc45)C(=O)N[C@@H](C)C(N)=O)(C3)NC(=O)[C@H](CC(C)C)NC(=O)[C@H](Cc3ccccc3)NC(=O)[C@H](C)NC(=O)[C@H](CO)NC(=O)[C@H](Cc3cccc(C(=O)O)c3)NC(=O)[C@H](CC(=O)O)NC1=O)NC(=O)[C@H](CC(C)(C)C)NC(=O)[C@H](CC(=O)O)NC2=O` (stereo partly drawn) [I-2050, Ac-PL3-Asp-Npg-B5-Asp-3COOHF-Ser-Ala-Phe-Leu-PyrS2-3Thi-BztA-Ala-NH2]: the IC50 came out at 0.009 µM in test [1] and 4.9 µM in test [2].

As for `CC(=O)N1CCC[C@]12CC=CCCCC1(CCCC=CCCCOC(=O)N3CC[C@@](C(=O)N[C@@H](Cc4ccsc4)C(=O)N[C@@H](Cc4csc5ccccc45)C(=O)N[C@@H](C)C(N)=O)(C3)NC(=O)[C@H](CC(C)C)NC(=O)[C@H](Cc3ccccc3)NC(=O)[C@H](C)NC(=O)[C@H]([C@@H](C)O)NC(=O)[C@H](Cc3cccc(C(=O)O)c3)NC(=O)[C@H](CC(=O)O)NC1=O)NC(=O)[C@H](CC(C)(C)C)NC(=O)[C@H](CC(=O)O)NC2=O` (stereo partly drawn) [I-2051, Ac-PL3-Asp-Npg-B5-Asp-3COOHF-Thr-Ala-Phe-Leu-PyrS2-3Thi-BztA-Ala-NH2], the half-maximal inhibitory concentration (IC50) in test [1] is 0.016 µM; in test [2], 8.3 µM.

As to `CC(=O)N1CCC[C@]12CC=CCCCC1(CCCC=CCCCOC(=O)N3CC[C@@](C(=O)N[C@@H](Cc4ccsc4)C(=O)N[C@@H](Cc4csc5ccccc45)C(=O)N[C@@H](C)C(N)=O)(C3)NC(=O)[C@H](Cc3ccccc3)NC(=O)[C@H](Cc3ccccc3)NC(=O)[C@H](C)NC(=O)[C@H](CCC(N)=O)NC(=O)[C@H](Cc3cccc(C(=O)O)c3)NC(=O)[C@H](CC(=O)O)NC1=O)NC(=O)[C@H](CC(C)(C)C)NC(=O)[C@H](CC(=O)O)NC2=O` (stereo partly drawn) [I-2052, Ac-PL3-Asp-Npg-B5-Asp-3COOHF-Gln-Ala-Phe-Phe-PyrS2-3Thi-BztA-Ala-NH2], the IC50 in test [1] turned out to be 0.012 µM; in test [2], 6 µM.

As for `CC(=O)N1CCC[C@]12CC=CCCCC1(CCCC=CCCCOC(=O)N3CC[C@@](C(=O)N[C@@H](Cc4ccsc4)C(=O)N[C@@H](Cc4csc5ccccc45)C(=O)N[C@@H](C)C(N)=O)(C3)NC(=O)[C@H](C)NC(=O)[C@H](Cc3ccccc3)NC(=O)[C@H](C)NC(=O)[C@H](CCC(N)=O)NC(=O)[C@H](Cc3cccc(C(=O)O)c3)NC(=O)[C@H](CC(=O)O)NC1=O)NC(=O)[C@H](CC(C)(C)C)NC(=O)[C@H](CC(=O)O)NC2=O` (stereo partly drawn) [I-2053, Ac-PL3-Asp-Npg-B5-Asp-3COOHF-Gln-Ala-Phe-Ala-PyrS2-3Thi-BztA-Ala-NH2], the concentration for half-maximal inhibition (IC50) in test [1] came out at 0.011 µM; in test [2], 5 µM.
